Legend:
Normal RHE tissue = experiment: Tissue viability (MTT) of normal RHE tissue during 6 day treatment; format: cell-based, human; details: 10% w/v, n = 1
Description: In this investigation two types of RHE tissues were used, which were healthy and psoriatic tissue sourced from the MatTek Corporation (Ashland, Mass.). For simplicity the protocol below refers to both tissue types as RHE tissues and all media as assay medium as both tissues were treated in the same manner. The only exception was that two different types of media were required for the different types of tissue (healthy and psoriatic tissues).
• (i) At the end of the equilibration period, the media for each well was removed then the tissues were lifted and placed on culture stands and fresh pre-warmed (37° C.) assay medium (5 mL) was added to the well. • (ii) Using a positive displacement pipette, the test solutions 10% w/v, N-H-S(N-hydroxyserine) in water, […], N-H-G (N-hydroxyglycine) in water, 10% w/v, L-h-S (L-homoserine) in water and 10% w/v, combination 1:1:1 (N-H-S:N-H-G: L-h-S) in water were dispensed (50±0.5 μL) onto the top of the RHE tissue. The solutions or controls were then distributed over the surface of the RHE tissues using a sterile glass rod. • (iii) The lid was placed on the well plate containing the RHE tissue and the tissues were returned to the incubator (37° C., 5% CO2) 48 h between applications.
• (i) Every 48 h culture media for the RHE tissues was removed from the 6 well plates and transferred into tubes stored (−20° C.) for cytokine analysis. • (ii) Fresh pre-warmed (37° C.) assay medium (5 mL) was added to each tissue using an automatic pipette. • (iii) From each treatment 1 tissue was removed for viability assessment. • (iv) The RHE tissues were subsequently rinsed with 100 μL of PBS to remove the residual solution from the epidermal surface. • (v) Using a positive displacement pipette, the solutions 10% w/v, N-H-S in water, 1% w/v, N-H-G in water, 10% w/v, L-h-S in water and 10% w/v, combination 1:1:1 (N-H-S:N-H-G:L-h-S) were dispensed (50±0.5 μL) onto the top of the RHE tissue. The solutions or controls were then distributed over the surface of the RHE tissues using a sterile glass rod. • (vi) The lid was placed on the well plate containing the RHE tissue and the tissues were returned to the incubator (37° C., 5% CO2) 48 h between applications at t=0, 48 and 96 h.
To determine the viability of the RHE tissue post application of the solutions and controls, the following procedure was used: • (i) The required wells in 24-well plates were filled with 300 μL MTT solution and protected from light. • (ii) The tissues were removed from the post treatment incubation plates and excess solutions and controls were removed with sterile cotton swabs. • (iii) The RHE tissue was subsequently rinsed with 1000 μL of PBS five times to remove the residual solution from the epidermal surface. • (iv) The tissue from Step (iii) was blotted dry with cotton swabs. • (v) The treated tissues from Step (iv) were transferred into wells in 24-well plates pre-filled with MTT solution (300 μL). The plates were incubated for 3 h (+/−5 min) at 37° C., 5% CO2 and 95% humidified atmosphere. • (vi) The treated tissues were subsequently transferred into a new plate filled with 1 mL of extractant solution. • (vii) The plates were sealed using Parafilm® to stop evaporation and protected from light using foil before extract at 2-8° C. to minimise evaporation. • (viii) Following extraction the RHE tissue were removed from the wells and an additional 1 mL of extractant solution was added. Using a pipette the extraction solution was mixed and made visually homogenous. • (ix) The solution from Step (viii) was transferred in to n=3 wells (200 μL per well) using an automatic pipette of a 96 well plate and the optical density was measured at a wavelength of 570 nm.

RHE tissues = experiment: RHE irritation assessment Method 2: Mattek's MTT effective time (ET-50) assay; format: cell-based, human; details: for ET-50 (exposure time to reduce viability to 50% of the control): 1% w/v N-H-G in water, dosing periods 2, 6 and 24 h
From the text: Method 1 was used to investigate the potential for alpha-hydroxylglycine (α-H-G) and L-homoserine (L-h-S) to cause skin irritation. The protocol is primarily designed and validated for single compounds rather than solutions. Therefore to provide further insight into the potential of N-hydroxyserine and N-hydroxylglycine to cause skin irritation a second protocol was investigated using Mattek's MTT effective time (ET-50) assay which is designed to test mixtures of compounds. In addition two commercially available amino acid related compound (L-serine and glycine) were selected and tested as comparators for N-hydroxyserine and N-hydroxylglycine. […] As a general guideline, the following groupings can be used in assigning expected in vivo irritancy responses based on the ET-50 results obtained: The irritation assessment of the solutions was performed using the protocol described below. Each of the test solutions; […] Damaged tissues were discarded. • (iii) The tissue were transferred into the assay medium and incubated at 37° C., 5% CO2 until the application of the test solutions; […] The working MTT solution was prepared using the following procedure: • (i) MTT concentrate was removed from the freezer and allowed to thaw. The concentrate was diluted with the MTT diluent solution (1 mL of concentrate to 4 mL of MTT diluent solution). • (ii) MTT solution from Step (i) was centrifuged at a g-force of 300 for 5 min to remove any particulates. • (iii) The supernatant of the MTT solution from Step (ii) was stored in the dark at 4° C. for a maximum period of 24 h and used as required. […] The plates were incubated for 3 h (+/−5 min) at 37° C., 5% CO2 and 95% humidified atmosphere. • (vi) The treated tissues were subsequently transferred into a new plate filled with 1 mL of extractant solution. • (vii) The plates were sealed using Parafilm® to stop evaporation and protected from light using foil before extract at 2-8° C. to minimise evaporation. • (viii) Following extraction the RHE tissue were removed from the wells and an additional 1 mL of extractant solution was added. Using a pipette the extraction solution was mixed and made visually homogenous. • (ix) The solution from Step (viii) was transferred in to n=3 wells (200 μL per well) using an automatic pipette of a 96 well plate and the optical density was measured at a wavelength of 570 nm.

[1] = Snake study: water uptake into snake skin after treatment with amino acid solution; set-up: species or system Elaphe guttata, the American corn snake; details: 24 h treatment with 1.33M amino acid solution, dried, then 40% RH
Description: • All experiments were performed in triplicate (i.e. three separate solutions, three pieces of skin, one per solution). […] Each piece was weighed and placed directly into one the of the amino acid solutions, one piece of snake skin per solution. • After 1 hour, the snake skin was removed from the solution and blotted dry on filter paper. The weight of the snake skin was recorded before the same snake skin was returned to the amino acid solution. • After an additional 23 hours (24 hours in total), the snake skin was again blotted dry on filter paper and weighed. • The snake skin, now having absorbed the test amino acid, was then placed in a vacuum desiccator over silica (0% RH) for 48 hours before being weighed.
• A 10% w/w concentration solution of each compound is made by stirring the compound (100 mg) in water (1 mL). Three separate solutions of each compound are made separately so that the experiment can be carried out in triplicate simultaneously. […] The weight of the snake skin is recorded before the same snake skin is returned to the same compound solution. • After an additional 23 hours (24 hours in total), the snake skin is again blotted dry on filter paper and weighed. • The snake skin is then placed in a vacuum desiccator over silica (0% relative humidity (RH)) for 48 hours before being weighed. […]

O=C(O)[C@H](CO)NO [N-hydroxyserine]
Normal RHE tissue viability as a percentage of untreated control (%) (Normal RHE tissue; 2 days in treatments): 83.4% | Normal RHE tissue viability as a percentage of untreated control (%) (Normal RHE tissue; 4 days in treatments): 91.5% | Normal RHE tissue viability as a percentage of untreated control (%) (Normal RHE tissue; 6 days in treatments): 86.9% | ET-50 (exposure time to reduce viability to 50% of the control) (RHE tissues; 10% w/v N-H-S): 12 to 24 h | ET-50 (exposure time to reduce viability to 50% of the control) (RHE tissues; 10% w/v N-H-S, listed as N-H-S): 22.8 h | expected in vivo irritancy from ET-50 (RHE tissues; 10% w/v N-H-S, 1% w/v N-H-G, 10% w/v L-Serine, 10% w/v Glycine in water): very mild (12-24 very mild)

O=C(O)CNO [N-hydroxyglycine, N-Hydroxyglycine]
Normal RHE tissue viability as a percentage of untreated control (%) (Normal RHE tissue; 2 days in treatments): 97.9% | Normal RHE tissue viability as a percentage of untreated control (%) (Normal RHE tissue; 4 days in treatments): 91.5% | Normal RHE tissue viability as a percentage of untreated control (%) (Normal RHE tissue; 6 days in treatments): 93.3% | impact on the viability of the RHE tissues (RHE tissues; dosing periods t=2, 6 and 24 h, 1% w/v N-H-G, 10% w/v L-Serine, 10% w/v Glycine): no significant impact

N[C@@H](CCO)C(=O)O [L-homoserine]
average percentage weight increase after 24 h at 40% RH [1]: particularly advantageous properties
